Experimental findings from US20260272878A1, “ADAR1 INHIBITORS AND USES THEREOF” (THE WISTAR INSTITUTE OF ANATOMY AND BIOLOGY, priority 2023, published 2026) are described below.

“Also recorded” adds a separate entry of the source.

One assay has as its target T1, ADAR2 (Homo sapiens, UniProt P78563).
T1 sequence (P78563 1-741): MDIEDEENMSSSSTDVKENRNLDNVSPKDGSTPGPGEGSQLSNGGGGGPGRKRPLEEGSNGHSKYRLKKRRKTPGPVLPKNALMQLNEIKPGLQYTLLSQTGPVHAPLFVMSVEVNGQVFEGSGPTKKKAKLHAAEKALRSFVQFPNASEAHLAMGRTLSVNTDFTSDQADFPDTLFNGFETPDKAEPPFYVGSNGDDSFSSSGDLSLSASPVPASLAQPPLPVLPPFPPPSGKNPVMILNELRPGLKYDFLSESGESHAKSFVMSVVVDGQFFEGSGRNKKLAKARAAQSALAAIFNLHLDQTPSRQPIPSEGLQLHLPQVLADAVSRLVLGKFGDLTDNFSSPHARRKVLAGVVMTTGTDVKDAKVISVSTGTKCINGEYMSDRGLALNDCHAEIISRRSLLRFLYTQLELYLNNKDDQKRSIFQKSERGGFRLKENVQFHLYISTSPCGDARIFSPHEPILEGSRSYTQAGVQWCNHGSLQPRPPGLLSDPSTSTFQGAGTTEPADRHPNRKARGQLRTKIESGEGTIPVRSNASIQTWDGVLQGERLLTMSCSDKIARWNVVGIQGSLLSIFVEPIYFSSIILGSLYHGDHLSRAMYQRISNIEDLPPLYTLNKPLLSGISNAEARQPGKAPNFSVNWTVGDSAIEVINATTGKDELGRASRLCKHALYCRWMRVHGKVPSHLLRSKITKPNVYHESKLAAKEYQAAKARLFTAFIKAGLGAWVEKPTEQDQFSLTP
Description: In vitro editing assay, ADAR2. The class given is biochemical. The conditions noted are these: ADAR2 mediated A-to-I editing in vitro.

For assay [1], the system named is IMR90 normal fibroblast cells. The assay can be described thus: Cell killing / viability, IMR90. The format is cell-based. As for the experimental part:
FIGS. 8A-8C show analysis of ADAR1i-124 effects in cancer cells. […] Viability was examined using the Apo Tox-Glo assay system. Control, 0.3% DMSO. Data: mean±SD (n=3). Significant differences identified by two-tailed Student's t-tests: *P<0.05, n.s., not significant. (FIG. 8B) Western blotting analysis of HeLa cells treated with ADAR1i-124 (10 μM).
FIGS. 9A-9C show dose-dependent killing of cancer cells and activation of IFN signaling. […] YUMM1.7 (FIG. 9B) and HGS2 cells (FIG. 9C) were treated with ADAR1i-124 at 10 μM (12 hrs). RNA samples were analyzed by qRT-PCR to monitor ISG expression levels. Data: mean±SD (n=3). Significant differences were identified by two-tailed Student's t-tests: ***P<0.001.
Dose-dependent selective killing of telomerase reactivated cancer cells was determined (FIG. 9A).

The subject of a further assay is YUMM1.7 cells. The assay can be described thus: Immunostaining (MAb J2) of unedited dsRNA fibers. The class given is cell-based, mouse. The conditions noted are these: for Unedited dsRNA fiber structures in cells: immunostaining with MAb J2, YUMM1.7 cells. The source says: FIGS. 7A-7C show analysis of ADAR1i-13 and analogs. […] IC50 values determined by dose-dependent in vitro editing assay are shown for ADAR1 inhibition positive compounds. […] Dumbbell-shaped dsRNA has been reported to form Z-RNA conformation and act as a strong IFN signaling activation triggers. ADAR1p150 mediated A-to-I editing suppresses Z-RNA structure transition and activation of IFN signaling.
It has been reported that the suppression ADAR1 editing activity results in binding of MDA5 to unedited dsRNAs, oligomerization of MDA5-dsRNA complexes, and formation of fiber-like structures (21, 44). These dsRNA fiber structures were detected in cells treated with ADAR1 inhibition active compounds, ADAR1i-13, ADAR1i-120, and ADAR1i-124, but not detected in cells treated with ADAR1 inhibition negative compounds (FIG. 7A).

Regarding `N#Cc1ccc(NC(=O)c2sc3ccccc3c2Cl)cc1` [ADAR1i-13, 3-chloro-N-(4-cyanophenyl)-1-benzothiophene-2-carboxamide], the ADAR2 inhibitory activity entry at ADAR2 is listed as “No ADAR2 inhibitory activity was detected; also recorded: did not inhibit ADAR2 mediated A-to-I editing in vitro”. The “Killing of IMR90 cells” value in assay [1] is reported as “not ALT U2OS cells or IMR90 normal fibroblast cells”. In the assay with YUMM1.7 cells, the “Unedited dsRNA fiber structures in cells” value is reported as “detected; also recorded: unedited dsRNA fibers induced”.

On to `N#Cc1ccccc1NC(=O)c1sc2ccccc2c1Cl` [ADAR1i-120], for which the ADAR2 inhibitory activity entry on ADAR2 is on record as “No ADAR2 inhibitory activity was detected”. Besides, the “Killing of IMR90 cells” value in assay [1] is on record as “not ALT U2OS cells or IMR90 normal fibroblast cells”. The “Unedited dsRNA fiber structures in cells” value in the assay on YUMM1.7 cells was “detected; also recorded: unedited dsRNA fibers induced”.

For `N#Cc1ccc(NC(=O)c2c(Cl)c3ccccc3n2CO)cc1` [ADAR1i-124], at ADAR2, the ADAR2 inhibitory activity result is recorded as “No ADAR2 inhibitory activity was detected; also recorded: did not inhibit ADAR2 mediated A-to-I editing in vitro; also recorded: No ADAR2 inhibition detected”. Further, the “Killing of IMR90 cells” value in assay [1] is “not ALT U2OS cells or IMR90 normal fibroblast cells; also recorded: unaffected”. The “RNase III sensitivity of induced dsRNA fibers” value with YUMM1.7 cells (RNase III treatment) is on record as “abolished by RNase III treatment; also recorded: sensitive to RNase III treatment”. Besides, the “Unedited dsRNA fiber structures in cells” value in the assay with YUMM1.7 cells is “detected; also recorded: unedited dsRNA fibers induced”.
